Measurements as given in patent US9249157B2, “Tricyclic heterocycle compounds” (BRISTOL-MYERS SQUIBB COMPANY, priority 2012, dated 2016).
Each block holds one compound with its values, some of them ahead of it.

Tests used:
[1] = test system: human tumor xenografts; assay: Human Tumor Xenograft Models in Mice (tumor type not stated); assay type: in vivo; conditions: for antitumor activity with oral administration (PO): Human Tumor Xenograft Models in mice
Text: (§1) Human Tumor Xenograft Models in Mice
(§2) All rodents were obtained from Harlan Sprague Dawley Co. (Indianapolis, Ind.), and maintained in an ammonia-free environment in a defined and pathogen—free colony. All mice were quarantined approximately 1 week prior to their use for tumor propagation and drug efficacy testing. Mice were fed food and water ad libitum. The animal care program of Bristol-Myers Squibb Pharmaceutical Research Institute is fully accredited by the American Association for Accreditation of Laboratory Animal Care (AAALAC). All experiments were performed in accordance with Bristol-Myers Squibb (BMS) animal test methods and guidelines.
Tumor xenografts were grown and maintained subcutaneously (SC) in immunocompromized balb/c nu/nu nude or NOD-SCID mice (Harlan Sprague Dawley). Tumors were propagated as subcutaneous transplants in the appropriate mouse strain (Table 10) using tumor fragments obtained from donor mice.
(§3) The required numbers of animals needed to detect a meaningful response were pooled at the start of the experiment and each was given a subcutaneous implant of a tumor fragment (˜20 mg) with a 13-gauge trocar. Tumors were allowed to grow to the pre-determined size window (tumors outside the range were excluded) and animals were evenly distributed to various treatment and control groups. […]
(§4) Tumor response was determined by measurement of tumors with a caliper twice a week, until the tumors reached a predetermined “target” size of 0.5 gm or 1 gm depending on the tumor type. […]
Tumor response criteria are expressed in terms of tumor growth inhibition (% TGI). […] For this purpose, the tumor weight of a group is expressed as medium tumor weight (MTW).
Whenever possible, antitumor activity was determined at a range of dose levels up to the maximum tolerated dose (MTD) which is defined as the dose level immediately below which excessive toxicity (i.e., more than one death) occurred. When death occurred, the day of death was recorded. […]

[2] = test system: TALL1; assay: Human Tumor Xenograft Models in Mice, TALL1; assay type: in vivo; conditions: 60 mg/kg, QDx10, oral administration; LCK = Log Cell Kill
Text: as §1
as §2, with “guidelines. […]” for “guidelines.”
as §3, §4
Tumor response criteria are expressed in terms of tumor growth inhibition (% TGI). […] For this purpose, the tumor weight of a group is expressed as […] tumor weight (MTW). […]

[3] = test system: human Notch 3; assay: Notch-CBF1 Transactivation Assay (Notch 3); assay type: cell-based; conditions: HeLa cells transfected with truncated Notch 3 and CBF1 luciferase reporter; 18 hours incubation
Text: (§5) Notch-CBF1 Transactivation Assay
(§6) The Notch-CBF1 (C-promoter binding factor I) cell based transactivation assay is based on the ability of the released Notch intracellular domain fragments (NICDs) to function as transcription factors in conjunction with CBF1 and other nuclear factors. Luciferase assays were used to measure the antagonism of Notch-CBF1 transcriptional activity. HeLa cervical cancer cells are transiently co-transfected with pCDNA3.1/Hygro plasmids containing truncated Notch 1, Notch 2, Notch 3, or Notch 4 receptors and a PGL3 luciferase reporter vector containing 4 copies of CBF1 binding site. The cells were then tested for Notch-CBF1 activity in the absence or presence of test compounds. HeLa cells, maintained in DMEM (high glucose with HEPES), 1× glutamine/penicillin/streptomycin and 10% Fetal Bovine serum, were transiently transfected in a T175 Flask (4.5×10^6 cells/flask) using the Monster Transfection Kit (Minis #MIR2906) according to manufacturers specifications. Table 1 denotes respective DNA quantity for the transfections.
(§7) Six hours post-transfection, cells were trypsinized and plated into a 384-well black Poly-D-lysine coated tissue culture plate at a density of 5×10^3 cells/well in 95 μL assay media (DMEM (high glucose with HEPES), 1× glutamine/penicillin/streptomycin, 0.0125% BSA, 1× non-essential amino acids). Assay media (5 μL) containing test compounds in final concentrations ranging from 5 μM to 8.4×10^−5 μM (3 fold serial dilutions) were added to the cells and the cell plates were then incubated for 18 hours at 37° C. and 5% CO2. Control wells contained DMSO vehicle (total counts) or 0.5 μM of an in-house small molecule inhibitor (background counts). Duplicates were used for each sample. Luciferase activity was measured after a 20-minute incubation with 50 μl STEADY-GLO® luciferase reagents according to manufacturer's specifications (Promega, Cat. #E2550) and analyzed by Envision plate reader (PerkinElmer, Boston, Mass.).
(§8) The antagonist effect of compounds was expressed as 100×[1−(average sample−average background)/(average total−average background)] where sample is the luciferase activity in the presence of test compound, background is equal to the luciferase activity in the presence of the small molecule inhibitor control and the total is signal induced in DMSO wells.

[4] = test system: human Notch 1; assay: Notch-CBF1 Transactivation Assay (Notch 1); assay type: cell-based; conditions: HeLa cells transfected with truncated Notch 1 and CBF1 luciferase reporter; 18 hours incubation
Text: as §5, §6, §7, §8

[5] = High Throughput Metabolic Stability Panel, dog microsomes; assay type: in vitro ADME; conditions: 10 minute incubation, 0.5 μM, control compound expected range
Protocol: (§9) High Throughput (HT) Metabolic Stability Panel
(§10) The metabolic stability assay evaluated CYP-mediated metabolic stability in vitro using human, rat, mouse, dog, and/or monkey microsomes after a ten-minute incubation. Each compound was tested in duplicate.
(§11) Test compound was received as a 3.5 mM stock solution in 100 percent DMSO. The test compound was diluted to create a 50 μM acetonitrile (ACN) solution containing 1.4% DMSO, which was then used as a 100× stock for incubation with microsomes. Each compound was tested in duplicate separately in each of three species in the Metabolic Stability-Human, Rat, and Mouse assay suite or as individual species in the Metabolic Stability-Dog or Metabolic Stability-Monkey suites. Compound, NADPH, and liver microsome solutions were combined for incubation in three steps:
(§12) 1. 152 μl of liver microsome suspension, protein concentration of 1.1 mg/ml in 100 mM NaPi, pH 7.4, 5 mM MgCl2 buffer, was pre-warmed at 37° C.
(§13) 3. The reaction was initiated by the addition of 17 μl of pre-warmed 10 mM NADPH solution in 100 mM NaPi, pH 7.4.
(§14) The reaction components were mixed well, and 75 μl of the reaction mixture was immediately transferred into 150 μl quench/stop solution (zero-time point, T0). Reactions were incubated at 37° C. for 10 minutes and then an additional 75 μl aliquot was transferred into 150 μl quench solution. […]

[6] = High Throughput Metabolic Stability Panel, monkey microsomes; assay type: in vitro ADME; conditions: 10 minute incubation, 0.5 μM, control compound expected range
Protocol: as §9, §10, §11, §12, §13, §14

[7] = High Throughput Metabolic Stability Panel, human microsomes; assay type: in vitro ADME; conditions: 10 minute incubation, 0.5 μM, control compound expected range
Protocol: as §9, §10, §11, §12, §13, §14

[8] = High Throughput Metabolic Stability Panel, mouse microsomes; assay type: in vitro ADME; conditions: 10 minute incubation, 0.5 μM, control compound expected range
Protocol: as §9, §10, §11, §12, §13, §14

[9] = High Throughput Metabolic Stability Panel, rat microsomes; assay type: in vitro ADME; conditions: 10 minute incubation, 0.5 μM, control compound expected range
Protocol: as §9, §10, §11, §12, §13, §14

SMILES: Cc1nocc1[C@H](C(N)=O)[C@@H](CCC(F)(F)F)C(=O)N[C@H]1N=C(c2ccccc2)c2cccc3c2N(CC(F)(F)CO3)C1=O [Example 1, (2R,3R)—N-((7S)-3,3-Difluoro-6-oxo-9-phenyl-3,4,6,7-tetrahydro-2H-[1,4]diazepino[1,7,6-ef][1,5]benzoxazepin-7-yl)-3-(3-methyl-4-isoxazolyl)-2-(3,3,3-trifluoropropyl)succinamide]
antitumor activity with oral administration (PO) [1]: showed antitumor activity
antitumor activity, intravenous route (IV) ([1]; human tumor xenografts implanted in mice, IV): exhibited antitumor activity

SMILES: NC(=O)[C@@H](CC1CC1)[C@@H](CCC(F)(F)F)C(=O)N[C@H]1N=C(c2ccccc2)c2cccc3c2N(CC(F)(F)CO3)C1=O [Example 2, (2R,3S)-3-(Cyclopropylmethyl)-N-((7S)-3,3-difluoro-6-oxo-9-phenyl-3,4,6,7-tetrahydro-2H-[1,4]diazepino[1,7,6-ef][1,5]benzoxazepin-7-yl)-2-(3,3,3-trifluoropropyl)succinamide]
antitumor activity with oral administration (PO) [1]: showed antitumor activity

SMILES: CCC[C@H](C(N)=O)[C@@H](CCC(F)(F)F)C(=O)N[C@H]1N=C(c2ccccc2)c2cccc3c2N(CCO3)C1=O [Example 7, (2R,3S)—N-((6S)-5-Oxo-8-phenyl-2,3,5,6-tetrahydro[1,4]oxazino[2,3,4-jk][1,4]benzodiazepin-6-yl)-3-propyl-2-(3,3,3-trifluoropropyl)succinamide]
Antitumor Activity TALL1 (LCK) [2]: 0.7
IC50 [3]: 14.8 nM

SMILES: CCC[C@H](C(N)=O)[C@@H](CCC(F)(F)F)C(=O)N[C@H]1N=C(c2ccccc2)c2cccc3c2N(CCN3)C1=O [Example 25, (2R,3S)—N-((6S)-5-Oxo-8-phenyl-2,3,5,6-tetrahydro-1H-[1,4]diazepino[1,7,6-de]quinoxalin-6-yl)-3-propyl-2-(3,3,3-trifluoropropyl)succinamide]
IC50 [4]: 14.5 nM
IC50 [3]: 16.9 nM

Average Percent Remaining ± SD, Dog [5]: 0.4 ± 0.4%
Average Percent Remaining ± SD, Monkey [6]: 0.6 ± 0.5%
Average Percent Remaining ± SD, Human [7]: 0.4 ± 0.4%
Average Percent Remaining ± SD, Mouse [8]: 0.4 ± 0.3%
Average Percent Remaining ± SD, Rat [9]: 0.7 ± 0.6%
SMILES: CCc1nn(CCCN2CCN(c3cccc(Cl)c3)CC2)c(=O)n1CCOc1ccccc1 [Nefazodone]
